Measurements from patent publication US12552800B2, “Compounds for diagnosis” (AC IMMUNE SA, priority 2020, dated 2026).
Entries after “also recorded” stand apart in the source; their conditions may differ. Read-outs that look alike come from different tables or passages of the source.

Tests used:
[1] = molecular target: T1, a-syn aggregates (Lewy bodies and Lewy neurites) (Homo sapiens, UniProt P37840); experiment: High resolution micro-autoradiography of Example-4 [^3H-4] on PD tissue; assay type: binding; settings: 20 nM
T1 construct: performed on frozen human brain sections from different a-synucleinopathy cases; from tissue; host or cells: frozen human brain sections (PD, PDD, MSA, DLB, LBV; NDC as controls)
Method: (§1) The protocol was adapted from Marquie et al., 2015. Sections were incubated with tritiated example compound 4 (Example-4 [^3H-4]) or a reference Tau ligand ([^3H]-Tau-Ref at 20 nM for one hour at RT. Sections were then washed as follows: One time in ice-cold 50 mM Tris-HCl pH 7.4 buffer for one minute, two times in 70% ice-cold ethanol for one minute, one time in ice-cold 50 mM Tris-HCl pH 7.4 buffer for one minute and finally rinsed briefly in ice-cold distilled water. Sections were subsequently dried and then exposed to Ilford Nuclear Emulsion Type K5 (Agar Scientific, AGP9281) in a light-proof slide storage box. After five days, the sections were developed by immersing them successively in the following solutions: 1.) Ilford Phenisol Developer (1:5 dilution in H2O, Agar Scientific, AGP9106), 2.) Ilfostop solution (1:20 dilution in H2O, Agar Scientific, AGP9104), 3.) Ilford Hypam Fixer (1:5 dilution in H2O, Agar Scientific, AGP9183) and finally rinsed with H2O.
(§2) When indicated, immunostaining was also performed on the same section. For image acquisition, sections were mounted using ProLong Gold Antifade reagent (Invitrogen P36930) and imaged on a Panoramic150 Slide Scanner (3DHistech) with a 20× objective capturing separately brightfield and fluorescent images. […]

pathological a-synuclein = experiment: Autoradiography of Example-4 [^3H-4] in brain sections from PD, MSA and NDC donors; assay type: binding, human; settings: 10 nM
Method: (§3) Frozen human brain sections from one familial PD case (a-synuclein [SNCA] gene G51 D missense mutation), labelled as SNCA, one idiopathic PD case, one MSA case and two non-demented control (NDC) cases were first briefly fixed for 15 minutes at 4° C. with 4% paraformaldehyde (Sigma, 252549) and washed three times for five minutes with PBS (Dulbecco's phosphate buffered saline, Sigma) at RT. All slides were then equilibrated for 20 minutes in 50 mM Tris-HCl pH 7.4 buffer prior to use in the experiment. Each brain section was incubated with a fixed concentration (10 nM) of tritiated example compound 4 (Example-4 [^3H-4]) in Tris-HCl buffer for two hours at RT (Total binding, ‘Total’). […] The slides were washed and then exposed and scanned in a real-time autoradiography system (BeaQuant instrument, ai4R).

Tau aggregates [2] = experiment: Micro-autoradiography of Example-4 [^3H-4] on AD tissue; assay type: binding, human; settings: AD brain tissue, compared to [^3H]-Tau-Ref
Method: as §1

[3] = molecular target: T2, PD brain-derived a-syn aggregates (Homo sapiens, UniProt P37840); experiment: Saturation binding of Example-4 [^3H-4] by micro-radiobinding; settings: PD homogenates
T2 construct: from tissue; host or cells: human PD donor brain, sarkosyl-insoluble 100,000 x g pellet
Method: PD brain-derived a-syn aggregates were spotted onto microarray slides. The slides were incubated with Example-4 [^3H-4] at increasing concentrations in the range of 1.56 nM to 80 nM. After incubation, slides were scanned by a real-time autoradiography system (BeaQuant instrument, ai4R). Quantification of the signal was performed by using the Beamage image analysis software (ai4R).

Tau aggregates [4] = experiment: Micro-autoradiography of Example-1 [^3H-1] on AD tissue; assay type: binding, human; settings: AD brain tissue, compared to [3H]-Tau-Ref
Method: as §1, with “compound 1 (Example-1 [3H-1])” for “compound 4 (Example-4 [^3H-4])”, “ligand ([3H]-Tau-Ref” for “ligand ([^3H]-Tau-Ref”, “at 60” for “at 20”, “at room temperature (RT).” for “at RT.”, “H2O. […]” for “H2O.”

[5] = molecular target: T2, PD brain-derived a-syn aggregates; experiment: Saturation binding of Example-1 [^3H-1] by micro-radiobinding; settings: head-to-head with [3H]-a-syn-Ref
Method: PD brain-derived a-syn aggregates were spotted onto microarray slides. The slides were incubated with Example-1 [^3H-1] or [3H]-a-syn-Ref at increasing concentrations in the range of 300 pM to 150 nM. After incubation, slides were washed and exposed to a phosphor storage screen (GE healthcare, BAS-IP TR 2025). Following exposure, phosphor storage screens were scanned with a laser imaging system (Typhoon FLA 7000) to readout the signal from the radiobinding experiments described above. Quantification of the signal was performed using the ImageJ software package.

[6] = molecular target: T3, TAR DNA-binding protein 43 (TDP-43) aggregates (Homo sapiens, UniProt Q13148); experiment: Micro-autoradiography of Example-1 [^3H-1] on FTLD-TDP type C tissue; settings: FTLD-TDP Type C brain tissue
T3 construct: present in Frontotemporal Lobar Degeneration TDP (FTLD-TDP) Type C brain tissue; from tissue; host or cells: FTLD-TDP type C brain tissue sections
T3 sequence (Q13148 whole entry): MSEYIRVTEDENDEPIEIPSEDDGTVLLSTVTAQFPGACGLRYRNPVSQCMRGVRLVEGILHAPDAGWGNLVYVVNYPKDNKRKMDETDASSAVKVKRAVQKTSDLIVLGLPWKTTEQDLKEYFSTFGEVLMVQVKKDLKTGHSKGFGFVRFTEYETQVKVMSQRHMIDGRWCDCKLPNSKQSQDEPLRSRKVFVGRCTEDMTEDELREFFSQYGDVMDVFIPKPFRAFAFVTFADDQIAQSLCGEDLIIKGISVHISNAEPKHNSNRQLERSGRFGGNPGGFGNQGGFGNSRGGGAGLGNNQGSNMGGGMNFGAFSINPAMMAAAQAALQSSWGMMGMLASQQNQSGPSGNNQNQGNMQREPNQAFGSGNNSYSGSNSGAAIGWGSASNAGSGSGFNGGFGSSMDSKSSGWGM
Method: as §1, with “compound 1 (Example-1 [3H-1])” for “compound 4 (Example-4 [^3H-4])”, “ligand ([3H]-Tau-Ref” for “ligand ([^3H]-Tau-Ref”, “at 60” for “at 20”, “at room temperature (RT).” for “at RT.”, “H2O. […]” for “H2O.”

[7] = molecular target: T1, a-syn aggregates (Lewy bodies and Lewy neurites); experiment: High resolution micro-autoradiography of Example-1 [^3H-1] in a-synucleinopathy tissues; assay type: binding; settings: 60 nM; PD, PDD, MSA, DLB, LBV tissue
Method: as §1, with “compound 1 (Example-1 [3H-1])” for “compound 4 (Example-4 [^3H-4])”, “ligand ([3H]-Tau-Ref” for “ligand ([^3H]-Tau-Ref”, “at 60” for “at 20”, “at room temperature (RT).” for “at RT.”
as §2

[8] = molecular target: T4, pathological a-synuclein aggregates (Homo sapiens, UniProt P37840); experiment: Autoradiography of Example-1 [^3H-1] in brain sections from PD, PDD and NDC donors; assay type: binding; parameters: Frozen human brain sections from one familial PD case; from tissue; host or cells: frozen human brain sections: familial PD (SNCA G51D), PDD or idiopathic PD, MSA, NDC controls; settings: PDD brain tissue, autoradiography
Method: (§4) Frozen human brain sections from one familial PD case (a-synuclein [SNCA] gene G51 D missense mutation), labelled as SNCA (G51 D), one PDD case and two non-demented control (NDC) cases were first briefly fixed for 15 minutes at 4° C. with 4% paraformaldehyde (Sigma, 252549) and washed three times for five minutes with PBS (Dulbecco's phosphate buffered saline, Sigma) at RT. All slides were then equilibrated for 20 minutes in 50 mM Tris-HCl pH 7.4 buffer prior to use in the experiment. Each brain section was incubated with a fixed concentration (10 nM) of tritiated example compound 1 (Example-1 [^3H-1]) or a reference a-syn ligand ([3H]-a-syn-Ref), or increasing concentrations of Example-1 [^3H-1] in the range of 1.25 nM to 80 nM of tritiated compound in Tris-HCl buffer for two hours at RT (Total binding, ‘−’). To determine non-specific (NS) binding Example-1 [^3H-1] or [3H]-a-syn-Ref was mixed with 1 μM of non-radiolabelled compound (Example 1 or a-syn-Ref respectively, self-block, ‘+’). The slides were washed and placed under Phosphor imaging screens (GE healthcare, BAS-IP TR 2025) in imaging cassettes. Imaging screens were scanned using a laser imaging system (Typhoon, FLA 7000) and resulting images were analyzed using the ImageJ software package.

[9] = molecular target: T5, pathological a-synuclein aggregates (Homo sapiens, UniProt P37840, G51D); experiment: as above; assay type: binding; settings: Genetic PD (SNCA (G51D)) brain tissue, autoradiography
T5 construct: Frozen human brain sections from one familial PD case; from tissue; host or cells: frozen human brain sections: familial PD (SNCA G51D), PDD or idiopathic PD, MSA, NDC controls
Method: as §4

[10] = molecular target: T4, pathological a-synuclein aggregates; experiment: as above; assay type: binding
Method: as §4

a-syn pathology = molecular target: T6, a-syn pathology (Homo sapiens, UniProt P37840); experiment: Autoradiography of Example-1 [^3H-1] in brain sections from PD, PDD, MSA, LBV and NDC donors; assay type: binding; settings: 10 nM
T6 construct: performed on frozen human brain sections from different a-synucleinopathy cases; from tissue; host or cells: frozen human brain sections (PD, PDD, MSA, DLB, LBV; NDC as controls)
Method: as §3, with “one” for “one familial PD case (a-synuclein [SNCA] gene G51 D missense mutation), labelled as SNCA, one idiopathic”, “case, two PDD cases, two MSA cases,” for “case,”, “one LBV” for “one MSA”, “and three” for “and two”, “compound 1 (Example-1 [^3H-1])” for “compound 4 (Example-4 [^3H-4])”

Row | SMILES | target engagement on Lewy bodies and Lewy neurites (silver grains) [1] | signal in non-diseased control cases (pathological a-synuclein) | specific binding in a-synucleinopathy tissues (pathological a-synuclein; MSA, familial PD, idiopathic PD) | target engagement on Tau aggregates (Tau aggregates [2]) | target engagement on Tau aggregates (Tau aggregates [2]; listed as Example-4 [^3H-1]) | Kd [3] [nM] | target engagement on Tau aggregates (Tau aggregates [4]) | binding site occupancy [5] | binding to TDP-43 aggregates [6] | target engagement on Lewy bodies and Lewy neurites (silver grains) [7] | B max [8] | Kd [8] [nM] | B max [9] | Kd [9] [nM] | Kd ([10]; PDD and genetic PD tissue, range of both, read-out: dissociation constant (Kd)) [nM] | binding in non-diseased tissue (NDC) ([10]; autoradiography, 10 nM) | specific binding in a-synucleinopathy brain sections ([10]; autoradiography, PDD and PD tissue, compared to [3H]-a-syn-Ref at 10 nM) | autoradiographic signal in non-demented control cases (a-syn pathology) | target engagement in a-synucleinopathy tissues (a-syn pathology; MSA, LBV, PDD cases)
1 | [3H]C([3H])([3H])n1cc(N2Cc3nn(-c4ccc(N5CC[C@@H](F)C5)nc4)cc3C2=O)cn1 [Example-4 [^3H-4]] | Accumulation of silver grains on Lewy bodies and Lewy neurites; also recorded: strong target engagement | very weak signal | specific binding | did not display specific target engagement | No accumulation of silver grains | 21 |  |  |  |  |  |  |  |  |  |  |  |  | 
2 | [3H]c1cncc(N2Cc3nn(-c4cnc(N5CC[C@@H](F)C5)c([3H])c4)cc3C2=O)c1 [Example-1 [^3H-1]] |  |  |  |  |  |  | No accumulation of silver grains on Tau tangles; also recorded: did not display specific target engagement | high and improved binding site occupancy | No accumulation of silver grains on TDP-43 aggregates; also recorded: very weak to no binding | Accumulation of silver grains on Lewy bodies and Lewy neurites; also recorded: strong target engagement | 1104 | 11 | 3004 | 13 | 11 to 13 | very weak binding | improved total and excellent specific binding | weak | target engagement
